Laboratory results taken from PMC6010013, “Synthesis, physiochemical property and antimicrobial activity of novel quaternary ammonium salts” (Journal of Enzyme Inhibition and Medicinal Chemistry, 2017).

Columns and labels:
Aspergillus niger = test: MIC, broth tube dilution; type: cell-based; settings: 72 h, 28 ℃, read-out: Minimal inhibitory concentration (MIC)
Excerpt: (§1) In this paper, antimicrobial activities of 24 QASs were detected by quantitative tests. […] Benzalkonium chloride (BZK) and chlorhexidine acetate (CA) was selected as positive controls. Representative compound POT-C12QAS (2) which synthesised and evaluated in previous work was also taken as a reference compound in MIC, MBC and cytotoxicity tests. […]
(§2) agriculture were used as target pathogens in this study, including three strains of Gram-positive bacteria (S. Aureus, α-H-tococcus, β-H-tococcus), three strains of Gram-negative bacteria (E. coli, P. aeruginosa, Proteus vulgaris) and four strains of fungi (Canidia albicans, Cytospora mandshurica, Physalospora piricola, Aspergillus niger). The antimicrobial tests were assayed, according to standard CLSI methods for antimicrobial dilution susceptibility tests to measure the minimum inhibitory concentration (MIC) and minimum bactericidal concentration (MBC)2.
(§3) A broth tube dilution method was followed to determine the MIC values for all the screened compounds against the micro-organisms, and for comparison benzalkonium chloride (BZK) and chlorhexidine acetate (CA) was used as a reference. For sample preparation, each of the test compounds and reference were dissolved in DMSO or sterile water at a concentration of 1600 μg/mL, and further dilutions of the compounds and reference in culture medium MHB (Muller-Hinton Broth) were prepared at the required quantities of 400, 200, 100 etc., down to 0.39 μg/mL. Bacterial strains and fungal strains were maintained on MHA (Muller-Hinton Agar) medium at 37℃ or 28 ℃ for 12 h or 72h, respectively. The microbial inocula were prepared by suspension in 10 mL of culture medium for colonies from culture on MHA. The cell density of each inoculum was adjusted in culture medium of a 0.5 McFarland standard (1-2×10^8 CFU/mL). The final amount applied was 10^5 CFU/mL for bacteria and fungi. The microbial inocula were added to the twofold diluted samples. One growth control tube was prepared […] the addition of the compound and one blank tube was prepared without the addition of the microorganism. MIC values were read after incubation at 37℃ or 28 ℃ for bacterial and fungal strains, respectively. After 12 h or 72h, the last tube with no growth of micro-organisms was recorded to represent the MIC value expressed in μg/ml. All experiments were carried out three times. […]

Canidia albicans = test: MIC, broth tube dilution; type: cell-based; settings: 72 h, 28 ℃, read-out: Minimal inhibitory concentration (MIC)
Excerpt: as §1, §2, §3

Cytospora mandshurica = test: MIC, broth tube dilution; type: cell-based; settings: Cytospora, 72 h, 28 ℃, read-out: Minimal inhibitory concentration (MIC)
Excerpt: as §1, §2, §3

E. coli = test: MIC, broth tube dilution; type: cell-based; settings: Escherichia coli, 12 h, 37℃, read-out: Minimal inhibitory concentration (MIC)
Excerpt: as §1, §2, §3

P. aeruginosa = test: MIC, broth tube dilution; type: cell-based; settings: Pseudomonas aeruginosa, 12 h, 37℃, read-out: Minimal inhibitory concentration (MIC)
Excerpt: as §1, §2, §3

Physalospora piricola = test: MIC, broth tube dilution; type: cell-based; settings: 72 h, 28 ℃, read-out: Minimal inhibitory concentration (MIC)
Excerpt: as §1, §2, §3

Proteus vulgaris = test: MIC, broth tube dilution; type: cell-based; settings: 12 h, 37℃, read-out: Minimal inhibitory concentration (MIC)
Excerpt: as §1, §2, §3

S. aureus = test: MIC, broth tube dilution; type: cell-based; settings: Staphylococcus aureus, 12 h, 37℃, read-out: Minimal inhibitory concentration (MIC)
Excerpt: as §1, §2, §3

α-H-tococcus = test: MIC, broth tube dilution; type: cell-based; settings: 12 h, 37℃, read-out: Minimal inhibitory concentration (MIC)
Excerpt: as §1, §2, §3

β-H-tococcus = test: MIC, broth tube dilution; type: cell-based; settings: 12 h, 37℃, read-out: Minimal inhibitory concentration (MIC)
Excerpt: as §1, §2, §3

Cytotoxicity, MTT assay = type: cell-based, human; settings: human, MTT, 24 h
Protocol: These six series of antimicrobial compounds may be applied to daily or clinical disinfectants for unbroken skin and trauma, or agricultural fungicides alternatively. Thus, their cytotoxicity for skin or body tissues are crucial. In this study, the cytotoxicity of target compounds was evaluated for human immortalised epidermal (HaCat) and human normal liver (LO2) cell line using MTT assay. […] The IC50 values of 5a, 6a, 10a, 16a, 16 b were about more than 50 μg/mL for LO2 and HaCat.
Cytotoxicity Testing with MTT Method
Human immortalized epidermal cells (HaCat) line were cultured in Dulbecco’s modified Eagle’s medium containing 10% fetal bovine serum, 1% penicillin, and 1% streptomycin at 37°C in a 5% CO2/95% air incubator MCO-15AC (SANYO). Human normal liver cells (LO2) line were cultured in Roswell Park Memorial Institute medium containing 10% fetal bovine serum, 1% penicillin, and 1% streptomycin at 37°C in a 5% CO2/95% air incubator MCO-15AC (SANYO). HaCat or LO2 cells in 96-well plate were adjusted to 1.0 × 10^5 cells mL-1 and cells were passed and cell supernatant was pour out before plating on glass slide at 37°C, 5% CO2 for 24 h. Cells were pretreated with 100 μL QAS for 24 h and cell supernatant with QAS was pour out and washed with PBS buffer system. Then, the cells were treated with the MTT solution (MTT, 3-(4,5-dimethythiazol-2-yl)-2,5-diphenyl-tetrazolium bromide, 20 μL, 5 mg/mL) for 4 h. The dark blue formazan crystal formed in the intact cells was solubilized with dimethyl sulfoxide, and absorbance at 570 nm was measured with a microplate reader (Multiskan MK3-Thermo Labsystems, USA). The results were expressed as percentage of the control value from the normal cells without treatments of QAS. […]

Haemolysis assay = type: cell-based; settings: human red blood cells (erythrocyte suspension), 1 h at 37 ℃, read-out: Haemolysis rate; for hemolysis at 1 h, 12.5 μg/mL: 12.50 μg/mL
Protocol: The surfactant may be absorbed and penetrate to the cell membrane, where it makes osmotic phenomena by altering the permeability of membrane, which in turn causes the cellular lysis. Haemolysis assay gives quantitative estimation about haemoglobin release when red blood cells are treated with QASs. Haemolytic assay of QASs at different concentration was carried out in Table 4. […] For 5a-b, 6a-b, 10a-c, 13a-b, and 16a-d, their safe concentration can more than 100 μg/mL. Compared with BZK and CA, all QASs were safe to be used when they circulated into the blood in low concentration. […]
The human blood from healthy individual was collected in a tube containing heparin, and the blood was centrifuged at 1500 rpm for 3 min. The […] (Erythrocyte) was collected and plasma was discarded and further washed five times with sterile normal saline solution. Then the cells were diluted to 0.2% of their volume with normal saline solution. 2 mL of the diluted red blood cells suspension was mixed with (a) 2 mL of normal salinesolution as a negative control; (b) 2 mL of distilled water as a positive control; (c) 2 mL of QAS solution which were dispersed into normal saline solution at the different concentrations ranging from 3.125 to 400 μg/mL. Then the mixtures were shaken well and incubated for 1 h at 37 ℃. Finally, the mixtures were centrifuged for 5min at 2000 r/min and the absorbances of supernatant at 540 nm was measured by a microplate reader (Multiskan MK3-Thermo Labsystems, USA). The hemolysis ratio was calculated as follows: The hemolysis ratio(%) = (OD Sample−OD Negative)/(OD Positive −OD Negative) ×100%. The hemolysis evaluation of QASs was performed in triplicate and results were expressed as the mean ± SD.

[1] = LO2 human normal liver cells, LO2 cells
[2] = HaCat human immortalised epidermal cells, HaCat cells

Structure (SMILES)	MIC (Aspergillus niger) [µg/mL]	MIC (Canidia albicans) [µg/mL]	MIC (Cytospora mandshurica) [µg/mL]	MIC (E. coli) [µg/mL]	MIC (P. aeruginosa) [µg/mL]	MIC (Physalospora piricola) [µg/mL]	MIC (Proteus vulgaris) [µg/mL]	MIC (S. aureus) [µg/mL]	MIC (α-H-tococcus) [µg/mL]	MIC (β-H-tococcus) [µg/mL]	IC50 at 24 h (Cytotoxicity, MTT assay; HaCat cells) [µg/mL]	IC50 at 24 h (Cytotoxicity, MTT assay; [1]) [µg/mL]	hemolysis at 1 h, 6.25 μg/mL (Haemolysis assay) [%]	hemolysis at 1 h, 12.5 μg/mL (Haemolysis assay) [%]	hemolysis at 1 h, 25 μg/mL (Haemolysis assay) [%]	hemolysis at 1 h, 50 μg/mL (Haemolysis assay) [%]	hemolysis at 1 h, 100 μg/mL (Haemolysis assay) [%]	hemolysis at 1 h, 200 μg/mL (Haemolysis assay) [%]	hemolysis at 1 h, 400 μg/mL (Haemolysis assay) [%]	IC50 at 24 h (Cytotoxicity, MTT assay; [2]) [µg/mL]
C[N+](CCO)(CCO)CCCCCCCCCCCCSc1nnc(-c2ccc(F)cc2)o1 [Compound 5d]	25	12.5	12.5	~25	~50	3.12	~25	~12.5	~12.5	~6.25	6.14 ± 0.53	6.95 ± 0.62	0.49 ± 0.12	0.87 ± 0.27	2.43 ± 0.82	4.81 ± 0.74	32.4 ± 6.78	66.7 ± 5.21	66.9 ± 4.12	
C[N+](CCO)(CCO)CCCCCCSc1nnc(-c2ccc(C(F)(F)F)cc2)o1 [Compound 6a]	25	50	12.5	50	100	6.25	100	50	50	25	> 50	> 50	0.15 ± 0.08	0.35 ± 0.17	0.51 ± 0.19	0.99 ± 0.12	3.38 ± 1.23	7.09 ± 2.89	41 ± 5.32	
C[N+](CCO)(CCO)CCCCCCCCSc1nnc(-c2ccc(C(F)(F)F)cc2)o1 [Compound 6b]	12.5	25	12.5	25	50	3.12	50	25	12.5	12.5	> 25	> 25	0.18 ± 0.06	0.51 ± 0.08	0.43 ± 0.1	0.7 ± 0.18	4.61 ± 0.31	26.2 ± 3.68	80.4 ± 4.98	
C[N+](CCO)(CCO)CCCCCCCCCCSc1nnc(-c2ccc(C(F)(F)F)cc2)o1.[Br-] [Compound 6c]	12.5	25	12.5	25	50	3.12	25	25	12.5	6.25		19.6 ± 1.62	0.57 ± 0.15	0.42 ± 0.13	0.67 ± 0.13	3.56 ± 1.32	35.8 ± 5.1	82.5 ± 6.12	89.4 ± 4.35	12.1 ± 1.57
C[N+](CCO)(CCO)CCCCCCCCCCCCSc1nnc(-c2ccc(C(F)(F)F)cc2)o1.[Br-] [Compound 6d]	6.25	12.5	6.25	25	50	1.56	25	6.25	6.25	3.12		5.86 ± 0.61	0.64 ± 0.19	1.05 ± 0.28	2.02 ± 3.45	4.85 ± 4.65	36.4 ± 6.35	85.6 ± 4.86	92.5 ± 3.87	5.25 ± 0.37
